Laboratory results published in patent publication US6033669A, “Methods for generating cytotoxic T cells and treatment of diseases thereby” (priority 1992, dated 2000).
Non-standard residues stand in square brackets, D forms with d. Residues, ends and D or L forms follow the SMILES beside them. *: point of attachment. CH2CH2O(Galα1-4Galβ) = OC[C@H]1O[C@H](O[C@@H]2[C@H](O)[C@@H](O)[C@H](OCC*)O[C@@H]2CO)[C@H](O)[C@@H](O)[C@H]1O; X1 = OC[C@H]1O[C@H](O[C@@H]2[C@H](O)[C@@H](O)[C@H](*)O[C@@H]2CO)[C@H](O)[C@@H](O)[C@H]1O; hCys = N[C@@H](CCS)C(=O)O

How the values were obtained:
[1] = tested on: RMA-S cells; experiment: Membrane expression of the CHO part (Gal2) by antibody staining in FACS; type: cell-based; conditions: data not shown
Description: Panel A: RMA-s cells were incubated for 24 hours at 26° C. to induce expression of empty D^b MHC-1 chains at the cell surface, and at 37° C., and stained for D^b expression. Panel B: Removal of D^b expression by pronase treatment of RMA-S cells, preincubated at 26° C. Pronase treatment for 2 h and 4 h. D^b removal is complete at 4 h. Panels C and E: 26° C. induced RMA-S cells were treated with the glycopeptides Gal2 -CSG11 (panel C) or Gal2 CAS10 (panel E), 300 μM for 2 h at 37° C., washed and stained for Gal2 expression. Panels D and F: Glycopeptide treated RMA-S cells as in panels C and E were pronase treated to remove Db and glycopeptide expression, washed and further incubated at 37° C. to allow re-expression of glycopeptides and stained for Gal2 expression.
When the glycopeptide bind to MHC-1, on the cell surface, the expression (and acessibility) of the corresponding CHO part, can be detected by antibody staining in FACS, as described above in relation to FIGS. 10C and E.

[2] = tested on: monoclonal antibody MC2101; experiment: ELISA recognition of Gal2 glycopeptides by monoclonal antibody MC2101; type: binding, mouse; conditions: for Absorbance at 405 nm: antibody MC2101 (specificity Galabios Gal--Gal), peptides coated at 50 μg/ml, pH 9.6
Description: (§1) Peptides (50 μg/ml) were diluted in 0.05 M carbonate buffer (pH 9.6) and 100 μl/well was added to flat-bottomed Costar microplates (cat. No 3590) for incubation over-night at 4° C. Plates were washed once with PBS, pre-incubated with […] for 30 minutes at room temperature and washed twice with PBS/0.05% Tween buffer. Monoclonal antibodies were diluted in 0.5% gelatin/PBS/0.05% Tween, added to microplates and incubated for 2 hours at room temperaure, and flick-washed with PBS/Tween. Alkaline phosphatase conjugated rabbit anti-mouse immunoglobulins (Dakopauts code No. S 414) was diluted 1/1000 in PBS/Tween and added as 100 μl/well. After 2 hours incubation at room temperature and 4 washes with PBS/Tween, 100 μl of alkaline phosphatase substrate solution was added. Plates were read after 2 hour at room temperaure, using a Multiskan System (Lab systems), for optical density at 405 nm.
The ELISA assay was performed as described in connection with Table 4.

[3] = tested on: monoclonal antibody Pk002; experiment: ELISA recognition of Gal2 glycopeptides by monoclonal antibody Pk002; type: binding, mouse; conditions: antibody Pk002 (specificity Globotriaosyl Gal--Gal--Glc, CD77); peptides coated at 50 μg/ml, pH 9.6
Description: as §1

[4] = tested on: target cells coated with different peptides and glycopeptides; experiment: Immunogenicity: mice immunized with glycopeptides, restimulated CTL tested for killing of coated target cells; type: in vivo; conditions: for Comments: Table 5, comment on immunogenicity and cross-reactivity of CTL
[5] = tested on: EL4 target cells

## CSCC[C@H](NC(=O)[C@@H](NC(=O)[C@H](CCC(=O)O)NC(=O)[C@H](CO[C@@H]1O[C@H](CO)[C@H](O[C@H]2O[C@H](CO)[C@H](O)[C@H](O)[C@H]2O)[C@H](O)[C@H]1O)NC(=O)[C@H](CC(N)=O)NC(=O)[C@H](CCC(=O)O)NC(=O)[C@H](CC(N)=O)NC(=O)[C@H](CO)NC(=O)[C@H](C)N)[C@@H](C)O)C(=O)O [Conjugate A5N9-6S-Gal2] (H-ASNENS(X1)ETM-OH)
[1]
  expression of the Gal2 epitope on the surface of cells that have bound glycopeptides (FACS): not recognized

## CSCC[C@H](NC(=O)[C@@H](NC(=O)[C@H](CCC(=O)O)NC(=O)[C@H](CCSC)NC(=O)[C@H](CC(N)=O)NC(=O)[C@H](CCC(=O)O)NC(=O)[C@H](CC(N)=O)NC(=O)[C@H](CO)NC(=O)[C@H](C)NC(=O)[C@@H](N)CSCCO[C@@H]1O[C@H](CO)[C@H](O[C@H]2O[C@H](CO)[C@H](O)[C@H](O)[C@H]2O)[C@H](O)[C@H]1O)[C@@H](C)O)C(=O)O [Gal2 -CAS10]
[2]
  Absorbance at 405 nm: 0.41
[3]
  Absorbance at 405 nm: 0.04

## CC(C)C[C@H](NC(=O)CNC(=O)[C@H](CCC(N)=O)NC(=O)[C@H](Cc1ccc(O)cc1)NC(=O)[C@@H](NC(=O)[C@H](Cc1ccc(O)cc1)NC(=O)CNC(=O)[C@H](CCCNC(=N)N)NC(=O)[C@@H](N)CSCCO[C@@H]1O[C@H](CO)[C@H](O[C@H]2O[C@H](CO)[C@H](O)[C@H](O)[C@H]2O)[C@H](O)[C@H]1O)C(C)C)C(=O)O [Gal2 -CRG9]
[1]
  expression of the Gal2 epitope on the surface of cells that have bound glycopeptides (FACS): high Gal2 expression

## CC[C@H](C)[C@H](NC(=O)[C@H](CCC(=O)O)NC(=O)[C@@H]1CCCN1C(=O)[C@@H]1CCCN1C(=O)[C@@H](NC(=O)[C@H](CC(N)=O)NC(=O)[C@H](CO)NC(=O)[C@@H]1CCCN1C(=O)CNC(=O)[C@H](CO)NC(=O)[C@@H](N)CSCCO[C@@H]1O[C@H](CO)[C@H](O[C@H]2O[C@H](CO)[C@H](O)[C@H](O)[C@H]2O)[C@H](O)[C@H]1O)[C@@H](C)O)C(=O)O [Gal2 -CSG11]
[2]
  reactivity with MC2101 in ELISA, comparison: reacted stronger than the GAL2 -CAS10 peptide
  Absorbance at 405 nm: 1.86
[1]
  expression of the Gal2 epitope on the surface of cells that have bound glycopeptides (FACS): high Gal2 expression
[3]
  Absorbance at 405 nm: 0.04

## CC(C)C[C@H](NC(=O)CNC(=O)[C@H](CCC(N)=O)NC(=O)[C@H](Cc1ccc(O)cc1)NC(=O)[C@H](CCSCCO[C@@H]1O[C@H](CO)[C@H](O[C@H]2O[C@H](CO)[C@H](O)[C@H](O)[C@H]2O)[C@H](O)[C@H]1O)NC(=O)[C@H](Cc1ccc(O)cc1)NC(=O)CNC(=O)[C@@H](N)CCCNC(=N)N)C(=O)O [RGY8-4h-Gal2] (H-RGY[hCys](CH2CH2O(Galα1-4Galβ))YQGL-OH)
[4]; FIG. 14(A)
  CTL generated, tested against EL-4 cells coated with RGY8-4 h-Gal2 and RGY8-4 h: both peptide and glycopeptide specific CTL cells are generated
[4]; FIG. 14(B), criss-cross
  killing of EL-4 cells coated with SGV12-Gal2 or SGV12 by generated CTL: only the cells coated with glycopeptide were killed

## CC(C)C[C@H](NC(=O)[C@H](CSCCO[C@@H]1O[C@H](CO)[C@H](O[C@H]2O[C@H](CO)[C@H](O)[C@H](O)[C@H]2O)[C@H](O)[C@H]1O)NC(=O)[C@H](Cc1ccc(O)cc1)NC(=O)CNC(=O)CNC(=O)[C@@H]1CCCN1C(=O)[C@H](CC(N)=O)NC(=O)[C@H](CCC(=O)O)NC(=O)[C@@H](NC(=O)CNC(=O)[C@@H](N)CO)C(C)C)C(=O)N[C@H](C(=O)O)[C@@H](C)O [SGV12-Gal2]
[1]
  expression of the Gal2 epitope on the surface of cells that have bound glycopeptides (FACS): high Gal2 expression
[4]; FIG. 13
  killing of EL-4 cells coated with glycopeptide 7 by generated CTL: at a lower level
  killing of EL-4 cells coated with glycopeptides 2 and 5 by generated CTL: killed
  recognition of carrier peptide alone (SGV12) and other control peptides by generated CTL: did not recognize the carrier peptide alone
[4]; mouse, in vivo
  type of T cell response generated by immunization: Gal2 specific T cell response

## ASNENMDAM [pep 9(NT60)]
[5]; 0.05 μM used for restimulation versus 5 μM and 0.5 μM, 100 μg s.c.
  lysis of virus specific and peptide-coated EL4 cells by induced CTL: more efficiently lysed
[5]; compared with pep 9(PR8), FIG. 3
  anti-peptide and antiviral CTL responses: stronger anti-peptide and antiviral CTL responses
[5]; mouse, in vivo
  specificity of induced CTL: preferentially killed their corresponding peptide-coated and virus-infected cells

## C A S N E N M E T M (CASNENMETM) [CAS10]
[2]
  Absorbance at 405 nm: 0.02
[3]
  Absorbance at 405 nm: 0.01

## CSGPSNTPPEI [CSG11]
[2]
  Absorbance at 405 nm: 0.01
[3]
  Absorbance at 405 nm: 0.08

## F A P G h Y P A L [FAP9-5h]
[4]
  Comments: Weaker, low FAP9 reactivity

## FAP9: K^b binding peptide, SEQ ID NO: 20; sequence not printed (FAPGNYPAL)
[4]
  Comments: Strong, with high FAP9-5h reactivity

## R G Y h Y Q G L [RGY8-4h]
[4]
  Comments: Strong, with RGY8 reactivity

## RGYVYQGL [RGY8]
[4]
  Comments: Some RGY8-4h reactivity
